Data: ChEMBL document CHEMBL1152085, “Novel 3-deoxy-3-descladinosyl-6-O-methyl erythromycin a analogues. Synthesis and in vitro activity” (1997)
Values after ≈ are worked out from the molar mass of the structure shown.

Tests used:
Type in all cases: functional
[1] = tested on: Streptococcus equinus; experiment: Tested in vitro for minimum inhibitory concentration to produce antibacterial activity against Streptococcus bovis A-5169 in presence of erythromycin A
[2] = tested on: Staphylococcus aureus; experiment: Tested in vitro for minimum inhibitory concentration to produce antibacterial activity against Staphylococcus aureus A5177
[3] = tested on: Streptococcus pyogenes; experiment: Tested in vitro for minimum inhibitory concentration to produce antibacterial activity against Streptococcus pyogenes 930 in presence of erythromycin A
[4] = tested on: Streptococcus pyogenes; experiment: Tested in vitro for minimum inhibitory concentration to produce antibacterial activity against Streptococcus pyogenes PIU 2548 in presence of erythromycin A
[5] = tested on: Staphylococcus aureus; experiment: Tested in vitro for minimum inhibitory concentration to produce antibacterial activity against Staphylococcus aureus A-5278
[6] = tested on: Staphylococcus aureus; experiment: Tested in vitro for minimum inhibitory concentration to produce antibacterial activity against Staphylococcus aureus 1775 in presence of erythromycin A
[7] = tested on: Staphylococcus aureus; experiment: Tested in vitro for minimum inhibitory concentration to produce antibacterial activity against Staphylococcus aureus NCTC-10649M
[8] = tested on: Streptococcus pyogenes; experiment: Tested in vitro for minimum inhibitory concentration to produce antibacterial activity against Streptococcus pyogenes 930
[9] = tested on: Staphylococcus aureus; experiment: Tested in vitro for minimum inhibitory concentration to produce antibacterial activity against Staphylococcus aureus ATCC 6538P in presence of erythromycin A
[10] = tested on: Streptococcus pyogenes; experiment: Tested in vitro for minimum inhibitory concentration to produce antibacterial activity against Streptococcus pyogenes PIU 2548
[11] = tested on: Staphylococcus epidermidis; experiment: Tested in vitro for minimum inhibitory concentration to produce antibacterial activity against Staphylococcus epidermidis 3519
[12] = tested on: Staphylococcus aureus; experiment: Tested in vitro for minimum inhibitory concentration to produce antibacterial activity against Staphylococcus aureus 1775
[13] = tested on: Staphylococcus aureus; experiment: Tested in vitro for minimum inhibitory concentration to produce antibacterial activity against Staphylococcus aureus CMX 642A in presence of erythromycin A
[14] = tested on: Streptococcus pyogenes; experiment: Tested in vitro for minimum inhibitory concentration to produce antibacterial activity against Streptococcus pyogenes EES61
[15] = tested on: Enterococcus faecium; experiment: Tested in vitro for minimum inhibitory concentration to produce antibacterial activity against Enterococcus faecium ATCC 8043
[16] = tested on: Streptococcus agalactiae; experiment: Tested in vitro for minimum inhibitory concentration to produce antibacterial activity against Streptococcus agalactiae CMX 508 in presence of erythromycin A
[17] = tested on: Streptococcus equinus; experiment: Tested in vitro for minimum inhibitory concentration to produce antibacterial activity against Streptococcus bovis A-5169
[18] = tested on: Staphylococcus aureus; experiment: Tested in vitro for minimum inhibitory concentration to produce antibacterial activity against Staphylococcus aureus A-5278 in presence of erythromycin A
[19] = tested on: Staphylococcus epidermidis; experiment: Tested in vitro for minimum inhibitory concentration to produce antibacterial activity against Staphylococcus epidermidis 3519 in presence of erythromycin A
[20] = tested on: Staphylococcus aureus; experiment: Tested in vitro for minimum inhibitory concentration to produce antibacterial activity against Staphylococcus aureus CMX 642A
[21] = tested on: Enterococcus faecium; experiment: Tested in vitro for minimum inhibitory concentration to produce antibacterial activity against Enterococcus faecium ATCC 8043 in presence of erythromycin A
[22] = tested on: Streptococcus pyogenes; experiment: Tested in vitro for minimum inhibitory concentration to produce antibacterial activity against Streptococcus pyogenes EES61 in presence of erythromycin A
[23] = tested on: Staphylococcus aureus; experiment: Tested in vitro for minimum inhibitory concentration to produce antibacterial activity against Staphylococcus aureus CMX 553
[24] = tested on: Staphylococcus aureus; experiment: Tested in vitro for minimum inhibitory concentration to produce antibacterial activity against Staphylococcus aureus ATCC 6538P
[25] = tested on: Staphylococcus aureus; experiment: Tested in vitro for minimum inhibitory concentration to produce antibacterial activity against Staphylococcus aureus CMX 553 in presence of erythromycin A
[26] = tested on: Staphylococcus aureus; experiment: Tested in vitro for minimum inhibitory concentration to produce antibacterial activity against Staphylococcus aureus A5177 in presence of erythromycin A
[27] = tested on: Staphylococcus aureus; experiment: Tested in vitro for minimum inhibitory concentration to produce antibacterial activity against Staphylococcus aureus NCTC-10649M in presence of erythromycin A
[28] = tested on: Streptococcus agalactiae; experiment: Tested in vitro for minimum inhibitory concentration to produce antibacterial activity against Streptococcus agalactiae CMX 508
[29] = tested on: Escherichia coli; experiment: Tested in vitro for minimum inhibitory concentration to produce antibacterial activity against Escherichia coli JUHL in presence of erythromycin A
[30] = tested on: Escherichia coli; experiment: Tested in vitro for minimum inhibitory concentration to produce antibacterial activity against Escherichia coli SS
[31] = tested on: Escherichia coli; experiment: Tested in vitro for minimum inhibitory concentration to produce antibacterial activity against Escherichia coli SS in presence of erythromycin A
[32] = tested on: Escherichia coli; experiment: Tested in vitro for minimum inhibitory concentration to produce antibacterial activity against Escherichia coli JUHL

SMILES	MIC [1] [mg/L]	MIC [2] [mg/L]	MIC [3] [mg/L]	MIC [5] [mg/L]	MIC [6] [mg/L]	MIC [7] [mg/L]	MIC [8] [mg/L]	MIC [9] [mg/L]	MIC [11] [mg/L]	MIC [12] [mg/L]	MIC [13] [mg/L]	MIC [14] [mg/L]	MIC [15] [mg/L]	MIC [16] [mg/L]	MIC [17] [mg/L]	MIC [18] [mg/L]	MIC [19] [mg/L]	MIC [20] [mg/L]	MIC [21] [mg/L]	MIC [22] [mg/L]	further results
CC[C@H]1OC(=O)[C@H](C)C[C@H](C)[C@@H](O[C@@H]2O[C@H](C)C[C@H](N(C)C)[C@H]2O)[C@](C)(OC)C[C@@H](C)C2=NCCN3C(=O)O[C@@]1(C)[C@H]3[C@H]2C	0.05	6.2 (≈ 9.94 µM)	> 100	> 100	> 100	6.2 (≈ 9.94 µM)	> 100	0.39	12.5 (≈ 20 µM)	> 100	0.39	0.39 (≈ 0.625 µM)	0.78 (≈ 1.25 µM)	0.05	0.39 (≈ 0.625 µM)	> 100	0.39	6.2 (≈ 9.94 µM)	0.05	0.02	MIC [4]: 6.2 mg/L; MIC [10]: 0.78 mg/L (≈ 1.25 µM); MIC [23]: 6.2 mg/L (≈ 9.94 µM); MIC [24]: 6.2 mg/L (≈ 9.94 µM); MIC [25]: 0.39 mg/L; MIC [26]: 12.5 mg/L; MIC [27]: 0.39 mg/L; MIC [28]: 0.39 mg/L (≈ 0.625 µM)
CC[C@H]1OC(=O)[C@H](C)C[C@H](C)[C@@H](O[C@@H]2O[C@H](C)C[C@H](N(C)C)[C@H]2O)[C@](C)(OC)C[C@@H](C)/C(=N\O)[C@H](C)[C@@H](O)[C@]1(C)O	0.05	25 (≈ 42.5 µM)	> 100	> 100	> 100	12.5 (≈ 21.2 µM)	> 100	0.2	12.5 (≈ 21.2 µM)	> 100	0.2	0.78 (≈ 1.32 µM)	3.1 (≈ 5.27 µM)	0.01	0.78 (≈ 1.32 µM)	> 100	0.2	12.5 (≈ 21.2 µM)	0.05	0.01	MIC [4]: 6.2 mg/L; MIC [29]: 50 mg/L; MIC [10]: 1.56 mg/L (≈ 2.65 µM); MIC [30]: 0.78 mg/L (≈ 1.32 µM); MIC [31]: 0.2 mg/L; MIC [32]: > 100 mg/L; MIC [23]: 12.5 mg/L (≈ 21.2 µM); MIC [24]: 12.5 mg/L (≈ 21.2 µM); MIC [25]: 0.2 mg/L; MIC [26]: 3.1 mg/L; MIC [27]: 0.2 mg/L; MIC [28]: 0.78 mg/L (≈ 1.32 µM)
CC[C@H]1OC(=O)[C@H](C)C[C@H](C)[C@@H](O[C@@H]2O[C@H](C)C[C@H](N(C)C)[C@H]2O)[C@](C)(OC)C[C@@H](C)/C(=N\OC)[C@H](C)[C@@H](O)[C@]1(C)O	0.01	100 (≈ 166 µM)	> 100	> 100	> 100	100 (≈ 166 µM)	100 (≈ 166 µM)	0.2	100 (≈ 166 µM)	> 100	0.39	6.2 (≈ 10.3 µM)	100 (≈ 166 µM)	0.02	3.1 (≈ 5.14 µM)	> 100	0.2	100 (≈ 166 µM)	0.1	0.01	MIC [29]: 50 mg/L; MIC [30]: 6.2 mg/L (≈ 10.3 µM); MIC [31]: 0.39 mg/L; MIC [32]: > 100 mg/L; MIC [23]: 100 mg/L (≈ 166 µM); MIC [24]: 100 mg/L (≈ 166 µM); MIC [25]: 0.39 mg/L; MIC [26]: 6.2 mg/L; MIC [27]: 0.39 mg/L; MIC [28]: 25 mg/L (≈ 41.5 µM)
